# Reference: ChEMBL document CHEMBL1687752, “Impact of antifungal prophylaxis on colonization and azole susceptibility of Candida species” (2009)
# Test system: Candida tropicalis
# Test: Antifungal activity against 9 days cultured Candida tropicalis isolated from neutropenic subject with AML or MDS stool receiving antifungal therapy for 45 days after 24 days of prophylaxis by broth microdilution method
# Type: functional
row,SMILES,MIC
1,CC[C@@H]([C@H](C)O)n1ncn(-c2ccc(N3CCN(c4ccc(OC[C@@H]5CO[C@@](Cn6cncn6)(c6ccc(F)cc6F)C5)cc4)CC3)cc2)c1=O [POSACONAZOLE],< 0.015 µg/mL

# Test system: Pichia kudriavzevii
# Test: Antifungal activity against 14 days cultured Candida krusei isolated from neutropenic subject with AML or MDS stool after 12 days of prophylaxis by broth microdilution method
# Type: functional
row,SMILES,MIC
1,CC[C@@H]([C@H](C)O)n1ncn(-c2ccc(N3CCN(c4ccc(OC[C@@H]5CO[C@@](Cn6cncn6)(c6ccc(F)cc6F)C5)cc4)CC3)cc2)c1=O [POSACONAZOLE],0.125 µg/mL

# Test system: Candida albicans
# Test: Antifungal activity against Candida albicans isolated from HSCT recipient 031 with acute or chronic GVHD mouth receiving antifungal drug after 109 days prophylaxis by broth microdilution method
# Type: functional
row,SMILES,MIC
1,CC[C@@H]([C@H](C)O)n1ncn(-c2ccc(N3CCN(c4ccc(OC[C@@H]5CO[C@@](Cn6cncn6)(c6ccc(F)cc6F)C5)cc4)CC3)cc2)c1=O [POSACONAZOLE],< 0.015 µg/mL

# Test system: Nakaseomyces glabratus
# Test: Antifungal activity against 23 days cultured Candida glabrata isolated from neutropenic subject with AML or MDS stool receiving antifungal therapy for 25 days after 3 days of prophylaxis by broth microdilution method
# Type: functional
row,SMILES,MIC
1,CC[C@@H]([C@H](C)O)n1ncn(-c2ccc(N3CCN(c4ccc(OC[C@@H]5CO[C@@](Cn6cncn6)(c6ccc(F)cc6F)C5)cc4)CC3)cc2)c1=O [POSACONAZOLE],0.125 µg/mL

# Test system: Candida albicans
# Test: Antifungal activity against Candida albicans isolated from HSCT recipients with acute or chronic GVHD receiving posaconazole by broth microdilution method
# Type: functional
SMILES,MIC50,MIC90
CC[C@@H]([C@H](C)O)n1ncn(-c2ccc(N3CCN(c4ccc(OC[C@@H]5CO[C@@](Cn6cncn6)(c6ccc(F)cc6F)C5)cc4)CC3)cc2)c1=O [POSACONAZOLE],0.03 µg/mL,0.12 µg/mL

# Test system: Nakaseomyces glabratus
# Test: Antifungal activity against Candida glabrata isolated from neutropenic subjects with AML or MDS receiving fluconazole by broth microdilution method
# Type: functional
SMILES,MIC50,MIC90
CC[C@@H]([C@H](C)O)n1ncn(-c2ccc(N3CCN(c4ccc(OC[C@@H]5CO[C@@](Cn6cncn6)(c6ccc(F)cc6F)C5)cc4)CC3)cc2)c1=O [POSACONAZOLE],0.5 µg/mL,1 µg/mL

# Test system: Nakaseomyces glabratus
# Test: Antifungal activity against 12 days cultured Candida glabrata isolated from HSCT recipient with acute or chronic GVHD mouth receiving antifungal therapy for 143 days after 116 days of prophylaxis by broth microdilution method
# Type: functional
row,SMILES,MIC
1,CC[C@@H]([C@H](C)O)n1ncn(-c2ccc(N3CCN(c4ccc(OC[C@@H]5CO[C@@](Cn6cncn6)(c6ccc(F)cc6F)C5)cc4)CC3)cc2)c1=O [POSACONAZOLE],2 µg/mL

# Test system: Nakaseomyces glabratus
# Test: Antifungal activity against 3 days cultured Candida glabrata isolated from neutropenic subject with AML or MDS stool receiving antifungal therapy for 25 days after 3 days of prophylaxis by broth microdilution method
# Type: functional
row,SMILES,MIC
1,CC[C@@H]([C@H](C)O)n1ncn(-c2ccc(N3CCN(c4ccc(OC[C@@H]5CO[C@@](Cn6cncn6)(c6ccc(F)cc6F)C5)cc4)CC3)cc2)c1=O [POSACONAZOLE],0.5 µg/mL

# Test system: Nakaseomyces glabratus
# Test: Antifungal activity against Candida glabrata isolated from HSCT recipient 975 with acute or chronic GVHD mouth after 112 days prophylaxis by broth microdilution method
# Type: functional
row,SMILES,MIC
1,CC[C@@H]([C@H](C)O)n1ncn(-c2ccc(N3CCN(c4ccc(OC[C@@H]5CO[C@@](Cn6cncn6)(c6ccc(F)cc6F)C5)cc4)CC3)cc2)c1=O [POSACONAZOLE],0.25 µg/mL

# Test system: Nakaseomyces glabratus
# Test: Antifungal activity against Candida glabrata isolated from neutropenic subjects with AML or MDS receiving posaconazole assessed as maximum MIC by broth microdilution method
# Type: functional
row,SMILES,MIC
1,CC[C@@H]([C@H](C)O)n1ncn(-c2ccc(N3CCN(c4ccc(OC[C@@H]5CO[C@@](Cn6cncn6)(c6ccc(F)cc6F)C5)cc4)CC3)cc2)c1=O [POSACONAZOLE],8 µg/mL

# Test system: Nakaseomyces glabratus
# Test: Antifungal activity against 25 days cultured Candida glabrata isolated from invasive fungal infected subject blood receiving antifungal therapy for 25 days after 3 days of prophylaxis by broth microdilution method
# Type: functional
row,SMILES,MIC
1,CC[C@@H]([C@H](C)O)n1ncn(-c2ccc(N3CCN(c4ccc(OC[C@@H]5CO[C@@](Cn6cncn6)(c6ccc(F)cc6F)C5)cc4)CC3)cc2)c1=O [POSACONAZOLE],0.5 µg/mL

# Test system: Nakaseomyces glabratus
# Test: Antifungal activity against -2 days cultured Candida glabrata isolated from HSCT recipient with acute or chronic GVHD mouth receiving antifungal therapy for 172 days after 114 days of prophylaxis by broth microdilution method
# Type: functional
row,SMILES,MIC
1,CC[C@@H]([C@H](C)O)n1ncn(-c2ccc(N3CCN(c4ccc(OC[C@@H]5CO[C@@](Cn6cncn6)(c6ccc(F)cc6F)C5)cc4)CC3)cc2)c1=O [POSACONAZOLE],0.5 µg/mL

# Test system: Candida albicans
# Test: Antifungal activity against Candida albicans isolated from HSCT recipient 301 with acute or chronic GVHD mouth after 114 days prophylaxis by broth microdilution method
# Type: functional
row,SMILES,MIC
1,CC[C@@H]([C@H](C)O)n1ncn(-c2ccc(N3CCN(c4ccc(OC[C@@H]5CO[C@@](Cn6cncn6)(c6ccc(F)cc6F)C5)cc4)CC3)cc2)c1=O [POSACONAZOLE],< 0.015 µg/mL

# Test system: Candida albicans
# Test: Antifungal activity against Candida albicans isolated from neutropenic subjects with AML or MDS receiving posaconazole assessed as maximum MIC by broth microdilution method
# Type: functional
row,SMILES,MIC
1,CC[C@@H]([C@H](C)O)n1ncn(-c2ccc(N3CCN(c4ccc(OC[C@@H]5CO[C@@](Cn6cncn6)(c6ccc(F)cc6F)C5)cc4)CC3)cc2)c1=O [POSACONAZOLE],0.03 µg/mL

# Test system: Pichia kudriavzevii
# Test: Antifungal activity against 8 days cultured Candida krusei isolated from neutropenic subject with AML or MDS pharynx after 12 days of prophylaxis by broth microdilution method
# Type: functional
row,SMILES,MIC
1,CC[C@@H]([C@H](C)O)n1ncn(-c2ccc(N3CCN(c4ccc(OC[C@@H]5CO[C@@](Cn6cncn6)(c6ccc(F)cc6F)C5)cc4)CC3)cc2)c1=O [POSACONAZOLE],0.125 µg/mL

# Test system: Nakaseomyces glabratus
# Test: Antifungal activity against 176 days cultured Candida glabrata isolated from HSCT recipient with acute or chronic GVHD mouth receiving antifungal therapy for 172 days after 114 days of prophylaxis by broth microdilution method
# Type: functional
row,SMILES,MIC
1,CC[C@@H]([C@H](C)O)n1ncn(-c2ccc(N3CCN(c4ccc(OC[C@@H]5CO[C@@](Cn6cncn6)(c6ccc(F)cc6F)C5)cc4)CC3)cc2)c1=O [POSACONAZOLE],2 µg/mL

# Test system: Nakaseomyces glabratus
# Test: Antifungal activity against 1 day cultured Candida glabrata isolated from HSCT recipient with acute or chronic GVHD mouth receiving antifungal therapy for 143 days after 116 days of prophylaxis by broth microdilution method
# Type: functional
row,SMILES,MIC
1,CC[C@@H]([C@H](C)O)n1ncn(-c2ccc(N3CCN(c4ccc(OC[C@@H]5CO[C@@](Cn6cncn6)(c6ccc(F)cc6F)C5)cc4)CC3)cc2)c1=O [POSACONAZOLE],0.5 µg/mL

# Test system: Candida albicans
# Test: Antifungal activity against Candida albicans isolated from HSCT recipient 262 with acute or chronic GVHD mouth receiving antifungal drug after 115 days prophylaxis by broth microdilution method
# Type: functional
row,SMILES,MIC
1,CC[C@@H]([C@H](C)O)n1ncn(-c2ccc(N3CCN(c4ccc(OC[C@@H]5CO[C@@](Cn6cncn6)(c6ccc(F)cc6F)C5)cc4)CC3)cc2)c1=O [POSACONAZOLE],< 0.015 µg/mL

# Test system: Pichia kudriavzevii
# Test: Antifungal activity against 6 days cultured Candida krusei isolated from neutropenic subject with AML or MDS stool receiving antifungal therapy for 19 days after 6 days of prophylaxis by broth microdilution method
# Type: functional
row,SMILES,MIC
1,CC[C@@H]([C@H](C)O)n1ncn(-c2ccc(N3CCN(c4ccc(OC[C@@H]5CO[C@@](Cn6cncn6)(c6ccc(F)cc6F)C5)cc4)CC3)cc2)c1=O [POSACONAZOLE],0.125 µg/mL
